From ChEMBL document CHEMBL1138641, “2-(4-Methoxyphenoxy)-5-nitro-N-(4-sulfamoylphenyl)benzamide activates Kir6.2/SUR1 K(ATP) channels” (Bioorg Med Chem Lett, 2004)

How the values were obtained:
Beta-TC6 [1] = experiment: Concentration required for inhibition of glucose stimulated insulin release from beta TC6 cells; format: functional, cell-based, Mus musculus
[2] = inhibitory concentration required for repolarization of beta cell membrane potential in presence of 10 mM glucose; format: functional, Homo sapiens
Beta-TC6 [3] = experiment: Percent efficacy for inhibition of glucose stimulated insulin release from beta TC6 cells; format: functional, Mus musculus
HEK293 = experiment: Potency by repolarisation of tolbutamide-depolarised membrane potential in HEK 293 cells; details: Homo sapiens
[4] = Mus musculus, Beta-TC6, read-out: IC50

| Compound | IC50 (Beta-TC6 [1]; [4]) [µM] | IC50 ([2]; Homo sapiens, read-out: IC50) [µM] | Efficacy (Beta-TC6 [3]) [%] | IC50 (HEK293) [µM] | IC50 [2] | IC50 (Beta-TC6 [1]; beta-tc6) |
| --- | --- | --- | --- | --- | --- | --- |
| CC(C)NC1=NS(=O)(=O)c2cc(Cl)ccc2N1 | 0.46 | 0.25 | 75 | 0.8 |  |  |
| COc1ccc(NC(=O)c2cc([N+](=O)[O-])ccc2Oc2ccc(OC)cc2)cc1 | 1.6 | 3.4 | 73 |  |  |  |
| COc1ccc(Oc2ccc([N+](=O)[O-])cc2C(=O)Nc2ccccc2S(N)(=O)=O)cc1 | 10.4 |  | 33 |  | No significant activity |  |
| CCN(C(=O)c1cc([N+](=O)[O-])ccc1Oc1ccc(OC)cc1)c1ccc(Cl)cc1 | 10.4 | 8.3 | 56 |  |  |  |
| COc1ccc(Oc2ccc([N+](=O)[O-])cc2C(=O)Nc2ccc(C(C)=O)cc2)cc1 | 1.12 | 8.1 | 75 |  |  |  |
| COc1ccc(Nc2ccc([N+](=O)[O-])cc2C(=O)Nc2ccc(S(N)(=O)=O)cc2)cc1 | 26.6 |  | 1 |  | No significant activity |  |
| COc1ccc(NC(=O)c2cc(C#N)ccc2Oc2ccc(OC)cc2)cc1 | 48.5 | 2.5 | 17 |  |  |  |
| COc1ccc(Oc2ccc([N+](=O)[O-])cc2C(=O)Nc2ccc(F)cc2)cc1 | 5.67 | 7.2 | 52 |  |  |  |
| COc1ccc(NC(=O)c2ccccc2Oc2ccccc2)cc1 |  |  |  |  | No significant activity | No significant activity |
| COc1ccc(Oc2ccc([N+](=O)[O-])cc2C(=O)Nc2cccc(S(N)(=O)=O)c2)cc1 | 20.5 | 9.9 | 31 |  |  |  |
| COc1ccc(Oc2ccc([N+](=O)[O-])cc2C(=O)Nc2ccc(S(N)(=O)=O)cc2)cc1 | 0.82 | 1.8 | 79 | 1.3 |  |  |
| COc1ccc(NC(=O)c2cc(N)ccc2Oc2ccc(OC)cc2)cc1 |  |  |  |  | No significant activity | No significant activity |
| COc1ccc(Oc2ccc([N+](=O)[O-])cc2C(=O)N(C)c2ccc(Cl)cc2)cc1 | 25.7 | 10.1 | 33 |  |  |  |
| CC1=Nc2ccc(Cl)cc2S(=O)(=O)N1 [DIAZOXIDE] | 23 | 13.7 | 25 | 33 |  |  |
| CC1(NC2=NS(=O)(=O)c3sc(Cl)cc3N2)CC1 [TIFENAZOXIDE] | 0.25 | 0.6 | 73 |  |  |  |
